Experimental data reported in ChEMBL document CHEMBL1146485, “Plant substances as anti-HIV agents selected according to their putative mechanism of action” (J Nat Prod, 2004).

Columns and labels:
[1] = Elimination half life in po dosed human; assay type: ADME, organism-based; conditions: in vivo, read-out: beta t1/2 (converted)
[2] = system: Human immunodeficiency virus 1; test: Selectivity for HIV1 integrase over HIV1 reverse transcriptase

half-life [1] [h] | fold change (FC) [2] | SMILES
15 |  | CCCc1cc(=O)oc2c3c(c4c(c12)OC(C)(C)C=C4)O[C@H](C)[C@@H](C)[C@@H]3O [CALANOLIDE A]
 | 10 | O=C(/C=C/c1ccc(O)c(O)c1)O[C@@H](C(=O)O)[C@@H](OC(=O)/C=C/c1ccc(O)c(O)c1)C(=O)O
 | 10 | O=C(/C=C/c1ccc(O)c(O)c1)O[C@@H]1C[C@](O)(C(=O)O)C[C@@H](OC(=O)/C=C/c2ccc(O)c(O)c2)[C@H]1O
